From patent publication US7723326B2, “Heterocyclic amide derivatives as RXR agonists for the treatment of dyslipidemia, hypercholesterolemia and diabetes” (Janssen Pharmaceutica N.V., priority 2005, dated 2010) come the findings set out here.

The subject of experiment [1] is ABCA1 mRNA in THP-1 cells. As to the kind of experiment: ABCA1 bDNA assay (ABCA1 mRNA induction). Type of experiment: cell-based. Particulars: Homo sapiens; for EC50: ABCA1 mRNA induction, usually 18-24 hrs; for Emax at 3 µM: relative to MX-6054, read-out: ABCA1 % max MX-6054. Here is the method:
THP-1 cells, a human monocytic cell line, were obtained from ATCC and maintained in RPMI (Gibco) supplemented with 10% fetal bovine serum (Gibco), 2mM L-glutamine and 1% antibiotic-antimycotic in 5% CO2 at 37° C. For ABCA1 mRNA induction assays, the cells were pelleted and resuspended in RPMI supplemented with 0.5% charcoal treated serum (Hyclone), 2 mM glutamine and 1% antibiotic-antimycotic. The cells were plated at a density of 40,000 cells/90 μl and incubated as above for at least 4 hours before the initiation of treatments. Compounds were prepared as 10 mM stocks in DMSO. For treatments, the compounds were diluted in medium and 10 μl of 10× stocks were added to the cells at a final concentration 0.1% DMSO. The cells were incubated for the desired amount of time (usually 18-24 hrs) and then lyzed with 50 μl of Quantigene HV bDNA lysis buffer which also contained the ABCA1 bDNA probes (probe sequences shown below): […]

In experiment [2] the target is T1, RXR ligand binding domain (accession number X52773) fused with the DNA binding domain of yeast GAL4 (Homo sapiens, UniProt P19793).
T1 construct: expressed in transfected cells; host or cells: HEK293
T1 sequence (P19793 227-458 limits assumed): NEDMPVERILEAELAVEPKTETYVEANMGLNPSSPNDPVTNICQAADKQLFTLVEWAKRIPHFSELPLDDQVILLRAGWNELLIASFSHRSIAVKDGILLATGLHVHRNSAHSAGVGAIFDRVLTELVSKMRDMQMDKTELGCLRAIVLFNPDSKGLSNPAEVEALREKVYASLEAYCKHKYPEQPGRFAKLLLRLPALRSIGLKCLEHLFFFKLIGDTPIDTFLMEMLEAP
As to the kind of experiment: RXR co-transfection assay (GAL4-LBD luciferase reporter in HEK293 cells). The class given is cell-based. The note with it: 16-18 hours. Here is the method: The nucleic acid sequence from 676-1464bp (accession number X52773) encoding the ligand binding domains was subcloned into the pM vector (BD Biosciences Clontech, Palo Alto, Calif.) and were fused with the DNA binding domain of yeast GAL4. HEK293 cells were cultured in DMEM/F12 medium supplemented with 10% FBS and 1% 1-glutamine (growth medium). Cells were seeded at a density of 5-10×10^6 cells in 50 ml of growth medium and left overnight, The medium was removed and the cells were washed with 15 ml of OptiMEM serum free medium (Invitrogen Corp). The cells were transfected using OptiMEM serum free medium and DMRIE transfection reagent (Invitrogen Corp). Approximately 10-30 ng of DNA for the different receptors and 5-10 ng of the luciferase reporter (1:1 ratio for RAR and 4:1 ratio for RXR of receptor DNA:reporter DNA) were gently mixed with 51 μl of DMRIE reagent in a total volume of 17 ml of OptiMEM medium. Eighteen hours after transfection, the cells were washed once with growth medium and then incubated for 6 hrs in 30 ml of growth medium. The cells were then trypsinized, and reseeded at a density of 50,000 per well in 96 well plates and left overnight. The medium was replaced with 90 μl of medium containing DMEM/F12 supplemented with 0.5% charcoal-treated FBS (HyClone; Logan, Utah) and 1% glutamine. Compounds or vehicle were added in 10 μl of 10× concentration of compound or vehicle (0.1% dimethyl sulfoxide). The cells were treated for 16-18 hours, lysed and assayed for luciferase activity using the Steady Gio luciferase assay kit (Promega, Madison, Wis.).
(In general: A reporter such as luciferase makes a cellular process visible.)

What is called EC50 is the concentration at which the effect is half-maximal.

Several values for one entry are separate records, joined by “and”; a condition that tells them apart may be missing. Equal values may be shown once. Some results are limits rather than exact numbers.

With `CCN1C(=O)C(C)(C)Oc2cc(C)c(-c3cc(/C=C/C(=O)O)ccc3OC(F)(F)F)cc21` [Compound 1, 3-[3-(4-Ethyl-2,2,7-trimethyl-3-oxo-3,4-dihydro-2H-benzo[1,4]oxazin-6-yl)-4-trifluoromethoxy-phenyl]-acrylic acid], the EC50 in experiment [1] was 39.7 nM; in experiment [2], 151 nM and 180 nM and 189 nM. Turning to `CCN1C(=O)OC(C(C)C)c2cc(C)c(-c3cc(/C=C/C(=O)O)ccc3OC(F)(F)F)cc21` (centres unmarked) [Compound 16, 3-[3-(1-Ethyl-4-isopropyl-6-methyl-2-oxo-1,4-dihydro-2H-benzo[d][1,3]oxazin-7-yl)-4-trifluoromethoxy-phenyl]-acrylic acid], in experiment [1], the 50% effective concentration (EC50) is greater than 2000 nM. As to `CCN1C(=O)OC(C)(C)c2cc(C)c(-c3cc(/C=C/C(=O)O)ccc3OC(F)(F)F)cc21` [Compound 14, 3-[3-(1-Ethyl-4,4,6-trimethyl-2-oxo-1,4-dihydro-2H-benzo[d][1,3]oxazin-7-yl)-4-trifluoromethoxy-phenyl]-acrylic acid], the EC50 in experiment [1] was greater than 2000 nM.

Turning to `CCn1c(=O)c(=O)n(CC)c2cc(-c3cc([C@@H]4C[C@H]4C(=O)O)ccc3OC(F)(F)F)c(C)cc21` (racemic) [Compound 26, 2-[3-(1,4-Diethyl-7-methyl-2,3-dioxo-1,2,3,4-tetrahydro-quinoxalin-6-yl)-4-trifluoromethoxy-phenyl]-cyclopropanecarboxylic acid], the EC50 in experiment [1] and in experiment [2] was greater than 2000 nM throughout. `CCN1C(=O)C(C)(C)Oc2cc(C)c(-c3cc(/C=C(\C)C(=O)O)ccc3OC(F)(F)F)cc21` [Compound 10, 3-[3-(4-Ethyl-2,2,7-trimethyl-3-oxo-3,4-dihydro-2H-benzo[1,4]oxazin-6-yl)-4-trifluoromethoxy-phenyl]-2-methyl-acrylic acid]: in experiment [1], the Emax at 3 µM is 37.2% and the concentration for a half-maximal effect (EC50) was greater than 2000 nM. The compound also showed an EC50 in experiment [2] of 1400 nM. The compound `CCN1C(=O)COc2cc(C)c(-c3cc(/C=C/C(=O)O)ccc3OC(F)(F)F)cc21` [Compound 6, 3-[3-(4-Ethyl-7-methyl-3-oxo-3,4-dihydro-2H-benzo[1,4]oxazin-6-yl)-4-trifluoromethoxy-phenyl]-acrylic acid] displayed an EC50 in experiment [1] greater than 2000 nM.

On to `CCN1C(=O)C(C)(C)Oc2cc(C)c(-c3cc(/C=C/C(=O)O)ccc3OCC(F)(F)F)cc21` [Compound 2, 3-[3-(4-Ethyl-2,2,7-trimethyl-3-oxo-3,4-dihydro-2H-benzo[1,4]oxazin-6-yl)-4-(2,2,2-trifluoro-ethoxy)-phenyl]-acrylic acid], for which the EC50 in experiment [1] and in experiment [2] was greater than 2000 nM throughout. As for `CCN1CC(C)(C)Oc2cc(C)c(-c3cc(/C=C/C(=O)O)ccc3OC(F)(F)F)cc21` [Compound 27, 3-[3-(4-Ethyl-2,2,7-trimethyl-3,4-dihydro-2H-benzo[1,4]oxazin-6-yl)-4-trifluoromethoxy-phenyl]-acrylic acid], the EC50 in experiment [1] was greater than 2000 nM. For the compound `CCN1C(=O)C(C)(C)Oc2cc(C)c(-c3cc(/C(C)=C/C(=O)O)ccc3OC(F)(F)F)cc21` [Compound 11, 3-[3-(4-Ethyl-2,2,7-trimethyl-3-oxo-3,4-dihydro-2H-benzo[1,4]oxazin-6-yl)-4-trifluoromethoxy-phenyl]-but-2-enoic acid], the Emax at 3 µM in experiment [1] was 75.5%. Also, the concentration giving a half-maximal response (EC50) in experiment [1] is greater than 2000 nM; in experiment [2], 61.2 nM. Consider `CCN1C(=O)OCc2cc(C)c(-c3cc([C@@H]4C[C@H]4C(=O)O)ccc3OC(F)(F)F)cc21` (racemic) [Compound 21, 2-[3-(1-Ethyl-6-methyl-2-oxo-1,4-dihydro-2H-benzo[d][1,3]oxazin-7-yl)-4-trifluoromethoxy-phenyl]-cyclopropanecarboxylic acid], for which, in experiment [1], the EC50 was greater than 2000 nM. As to `Cc1cc2c(cc1-c1cc(C3CC3C(=O)O)ccc1OC(F)(F)F)N(C(C)C)C(=O)C(C)(C)O2` (racemic) [Compound 23, 2-[3-(4-Isopropyl-2,2,7-trimethyl-3-oxo-3,4-dihydro-2H-benzo[1,4]oxazin-6-yl)-4-trifluoromethoxy-phenyl]-cyclopropanecarboxylic acid], the Emax at 3 µM in experiment [1] was 64.1%. Also, the concentration for a half-maximal effect (EC50) in experiment [1] was greater than 2000 nM; in experiment [2], 719 nM. For `CCN1C(=O)C(C(C)C)Oc2cc(C)c(-c3cc(/C=C/C(=O)O)ccc3OC(F)(F)F)cc21` (centres unmarked) [Compound 9, 3-[3-(4-Ethyl-2-isopropyl-7-methyl-3-oxo-3,4-dihydro-2H-benzo[1,4]oxazin-6-yl)-4-trifluoromethoxy-phenyl]-acrylic acid], the concentration giving a half-maximal response (EC50) in experiment [1] is greater than 2000 nM. On the same count and under the same terms, as for `CCn1c(=O)c(=O)n(CC)c2cc(-c3cc(/C=C/C(=O)O)ccc3OC(F)(F)F)c(C)cc21` [Compound 24, 3-[3-(1,4-Diethyl-7-methyl-2,3-dioxo-1,2,3,4-tetrahydro-quinoxalin-6-yl)-4-trifluoromethoxy-phenyl]-acrylic acid], the figure is greater than 2000 nM; as for `CCN1C(=O)OC(C)(C)c2cc(C)c(-c3cc([C@@H]4C[C@H]4C(=O)O)ccc3OC(F)(F)F)cc21` [Compound 19, 2-[3-(1-Ethyl-4,4,6-trimethyl-2-oxo-1,4-dihydro-2H-benzo[d][1,3]oxazin-7-yl)-4-trifluoromethoxy-phenyl]-cyclopropanecarboxylic acid], greater than 2000 nM; as for `CCN1C(=O)CN(C(C)C)c2cc(C)c(-c3cc(/C=C/C(=O)O)ccc3OC(F)(F)F)cc21` [Compound 25, 3-[3-(4-Ethyl-1-isopropyl-7-methyl-3-oxo-1,2,3,4-tetrahydro-quinoxalin-6-yl)-4-trifluoromethoxy-phenyl]-acrylic acid], greater than 2000 nM.

In the case of `CCC1Oc2cc(C)c(-c3cc(/C=C/C(=O)O)ccc3OC(F)(F)F)cc2N(CC)C1=O` (centres unmarked) [Compound 8, 3-[3-(2,4-Diethyl-7-methyl-3-oxo-3,4-dihydro-2H-benzo[1,4]oxazin-6-yl)-4-trifluoromethoxy-phenyl]-acrylic acid], the concentration giving a half-maximal response (EC50) in experiment [1] was greater than 2000 nM. Still for that read-out and setting: the value for `CCN1C(=O)OC(C)(C)c2cc(C)c(-c3cc(CCC(=O)O)ccc3OC(F)(F)F)cc21` [Compound 17, 3-[3-(1-Ethyl-4,4,6-trimethyl-2-oxo-1,4-dihydro-2H-benzo[d][1,3]oxazin-7-yl)-4-trifluoromethoxy-phenyl]-propionic acid] was greater than 2000 nM; that for `CCN1C(=O)OCc2cc(C)c(-c3cc(/C=C/C(=O)O)ccc3OC(F)(F)F)cc21` [Compound 15, 3-[3-(1-Ethyl-6-methyl-2-oxo-1,4-dihydro-2H-benzo[d][1,3]oxazin-7-yl)-4-trifluoromethoxy-phenyl]-acrylic acid] was greater than 2000 nM.

In turn, `CCN1C(=O)C(C)Oc2cc(C)c(-c3cc(/C=C/C(=O)O)ccc3OC(F)(F)F)cc21` (centres unmarked) [Compound 7, 3-[3-(4-Ethyl-2,7-dimethyl-3-oxo-3,4-dihydro-2H-benzo[1,4]oxazin-6-yl)-4-trifluoromethoxy-phenyl]-acrylic acid] yielded an EC50 in experiment [1] greater than 2000 nM.

Compound `CCN1C(=O)OC(C(C)C)c2cc(C)c(-c3cc([C@@H]4C[C@H]4C(=O)O)ccc3OC(F)(F)F)cc21` (some centres unmarked) [Compound 20, 2-[3-(1-Ethyl-4-isopropyl-6-methyl-2-oxo-1,4-dihydro-2H-benzo[d][1,3]oxazin-7-yl)-4-trifluoromethoxy-phenyl]-cyclopropanecarboxylic acid] showed a half-maximal effective concentration (EC50) in experiment [1] greater than 2000 nM.
